How the values were obtained:
[1] = molecular target: Growth factor receptor-bound protein 2 (Homo sapiens) (UniProt P62993); assay: Inhibition of Grb2 SH2 domain binding to PDGF receptor
[2] = molecular target: T1, Proto-oncogene tyrosine-protein kinase Src (Homo sapiens, UniProt P12931); assay: Binding affinity to p60 src SH2 domain.
[3] = molecular target: T2, Tyrosine-protein phosphatase non-receptor type 11 (Homo sapiens, UniProt Q06124); assay: Inhibition of Syp(N) SH2 domain block binding to PDGF receptor
T2 sequence (Q06124 whole entry): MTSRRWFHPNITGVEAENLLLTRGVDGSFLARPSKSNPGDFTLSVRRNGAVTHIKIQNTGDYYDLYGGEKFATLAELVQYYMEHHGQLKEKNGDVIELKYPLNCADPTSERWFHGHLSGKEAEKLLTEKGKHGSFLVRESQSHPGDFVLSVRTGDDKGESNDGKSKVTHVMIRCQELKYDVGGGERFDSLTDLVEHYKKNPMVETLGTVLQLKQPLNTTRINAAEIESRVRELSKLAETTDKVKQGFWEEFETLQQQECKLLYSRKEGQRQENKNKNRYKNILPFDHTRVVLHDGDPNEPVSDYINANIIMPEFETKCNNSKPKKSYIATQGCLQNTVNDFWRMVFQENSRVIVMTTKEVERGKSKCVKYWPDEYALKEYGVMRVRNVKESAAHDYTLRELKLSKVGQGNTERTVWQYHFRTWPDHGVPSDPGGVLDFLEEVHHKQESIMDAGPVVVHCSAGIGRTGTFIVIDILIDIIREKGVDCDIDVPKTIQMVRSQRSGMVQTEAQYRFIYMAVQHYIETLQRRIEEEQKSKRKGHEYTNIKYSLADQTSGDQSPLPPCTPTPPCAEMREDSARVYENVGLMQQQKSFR

[4] = Inhibition of PLC(C) SH2 domain binding to PDGF receptor
[5] = molecular target: Growth factor receptor-bound protein 2 (Homo sapiens) (UniProt P62993); assay: Inhibition of Grb2 SH2 domain binding to PDGF receptor 100 uM
[6] = molecular target: Tyrosine-protein kinase ABL1 (Homo sapiens, UniProt P00519); assay: Inhibition of Abl SH2 domain binding PDGF receptor
[7] = molecular target: T1, Proto-oncogene tyrosine-protein kinase Src; assay: Inhibition of src SH2 domain binding to PDGF receptor

T1 sequence (P12931 2-536 limits assumed): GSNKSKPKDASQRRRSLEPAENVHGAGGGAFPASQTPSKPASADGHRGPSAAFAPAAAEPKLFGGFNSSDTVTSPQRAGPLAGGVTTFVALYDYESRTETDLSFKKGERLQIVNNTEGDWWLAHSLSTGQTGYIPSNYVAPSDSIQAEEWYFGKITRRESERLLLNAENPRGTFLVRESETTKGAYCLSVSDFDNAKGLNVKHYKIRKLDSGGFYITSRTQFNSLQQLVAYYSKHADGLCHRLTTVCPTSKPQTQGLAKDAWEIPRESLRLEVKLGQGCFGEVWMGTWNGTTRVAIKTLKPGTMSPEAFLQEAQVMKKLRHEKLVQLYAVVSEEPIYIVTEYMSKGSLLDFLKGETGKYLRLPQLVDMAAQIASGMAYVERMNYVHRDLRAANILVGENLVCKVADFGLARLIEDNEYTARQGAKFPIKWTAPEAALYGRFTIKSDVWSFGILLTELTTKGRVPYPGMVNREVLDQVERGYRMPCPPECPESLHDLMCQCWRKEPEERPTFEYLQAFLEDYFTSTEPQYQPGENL
Tyrosine-protein kinase ABL1, sequence (P00519 whole entry, the tested form may be a part): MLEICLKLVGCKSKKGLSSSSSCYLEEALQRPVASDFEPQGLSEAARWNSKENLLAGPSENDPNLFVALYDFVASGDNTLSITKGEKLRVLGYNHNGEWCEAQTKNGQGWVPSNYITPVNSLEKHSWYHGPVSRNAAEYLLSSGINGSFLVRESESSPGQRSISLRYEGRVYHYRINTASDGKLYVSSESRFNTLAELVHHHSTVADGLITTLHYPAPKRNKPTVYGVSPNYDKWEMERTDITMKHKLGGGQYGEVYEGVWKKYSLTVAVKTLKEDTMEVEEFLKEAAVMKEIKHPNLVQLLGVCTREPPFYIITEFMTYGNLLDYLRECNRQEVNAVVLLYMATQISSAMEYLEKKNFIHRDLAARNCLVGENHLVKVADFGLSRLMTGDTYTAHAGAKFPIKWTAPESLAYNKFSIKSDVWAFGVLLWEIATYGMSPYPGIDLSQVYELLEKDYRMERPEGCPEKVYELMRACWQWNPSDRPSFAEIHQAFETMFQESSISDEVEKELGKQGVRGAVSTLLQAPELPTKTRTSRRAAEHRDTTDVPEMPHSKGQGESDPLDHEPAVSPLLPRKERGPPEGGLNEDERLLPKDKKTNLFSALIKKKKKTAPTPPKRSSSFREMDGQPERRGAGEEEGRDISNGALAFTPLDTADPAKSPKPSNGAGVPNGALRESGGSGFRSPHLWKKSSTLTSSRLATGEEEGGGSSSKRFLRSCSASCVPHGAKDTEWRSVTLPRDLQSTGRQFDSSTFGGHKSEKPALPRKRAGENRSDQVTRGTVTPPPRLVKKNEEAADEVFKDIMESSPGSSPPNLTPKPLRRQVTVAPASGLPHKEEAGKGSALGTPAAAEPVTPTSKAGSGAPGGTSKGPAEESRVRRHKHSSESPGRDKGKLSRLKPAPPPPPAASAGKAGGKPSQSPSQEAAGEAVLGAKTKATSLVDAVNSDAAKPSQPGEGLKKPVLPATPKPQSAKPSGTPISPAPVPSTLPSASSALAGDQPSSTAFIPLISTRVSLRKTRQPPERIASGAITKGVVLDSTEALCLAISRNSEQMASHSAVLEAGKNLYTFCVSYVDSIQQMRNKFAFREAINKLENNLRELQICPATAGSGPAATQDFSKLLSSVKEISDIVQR

Row | Structure (SMILES) | IC50 [2] | further results
1 | CC[C@H](C)[C@H](NC(=O)[C@H](CCC(=O)O)NC(=O)[C@H](CCC(=O)O)NC(=O)C(Cc1ccc(OP(=O)(O)O)cc1)c1ccccc1)C(=O)N[C@@H](CCC(=O)O)C(=O)O (stereo in doubt) [listing 1 of 2 here] | – | IC50 [1]: > 100 µM
2 | NC(=O)[C@H](Cc1c[nH]c2ccccc12)NC(=O)C(CCC(=O)O)NC(=O)C(Cc1ccc(OP(=O)(O)O)cc1)c1ccccc1 (some centres not stated) | 28 µM | –
3 | CC[C@H](C)[C@H](NC(=O)[C@H](CCC(=O)O)NC(=O)[C@H](CCC(=O)O)NC(=O)C(Cc1ccc(OP(=O)(O)O)cc1)c1ccc2ccccc2c1)C(=O)N[C@@H](CCC(=O)O)C(=O)O (single isomer, unassigned; isomer 2) | 4.5 µM | –
4 | Cc1cc(OP(=O)(O)O)cc(C)c1CCC(=O)NC(CCC(=O)O)C(=O)N[C@@H](Cc1c[nH]c2ccccc12)C(N)=O (some centres not stated) | 30 µM | –
5 | CC[C@H](C)[C@H](NC(=O)[C@H](CCC(=O)O)NC(=O)[C@H](CCC(=O)O)NC(=O)C(Cc1ccc(OP(=O)(O)O)cc1)c1cccc2ccccc12)C(=O)N[C@@H](CCC(=O)O)C(=O)O (stereo in doubt; form 1) | 7.3 µM | –
6 | NC(=O)[C@H](Cc1c[nH]c2ccccc12)NC(=O)C(CCC(=O)O)NC(=O)CCc1ccc(OP(=O)(O)O)cc1 (some centres not stated) | 21.3 µM | –
7 | CC(=O)N[C@@H](Cc1ccc(OP(=O)(O)O)cc1)C(=O)NC(CCC(=O)O)C(=O)N[C@@H](Cc1c[nH]c2ccccc12)C(N)=O (some centres not stated) | 4 µM | –
8 | CC[C@H](C)[C@H](NC(=O)[C@H](CCC(=O)O)NC(=O)[C@H](CCC(=O)O)NC(=O)[C@@H](Cc1ccc(OP(=O)(O)O)cc1)NC(C)=O)C(=O)N[C@@H](CCC(=O)O)C(=O)O | – | IC50 [3]: > 100 µM; IC50 [4]: > 100 µM; inhibition [5]: 45.2%; IC50 [6]: 15.3 µM
9 | CC[C@H](C)[C@H](NC(=O)[C@H](CCC(=O)O)NC(=O)[C@H](CCC(=O)O)NC(=O)C(Cc1ccc(OP(=O)(O)O)cc1)c1cccc2ccccc12)C(=O)N[C@@H](CCC(=O)O)C(=O)O (stereo in doubt; form 2) | 2.6 µM | –
10 | NC(=O)[C@H](Cc1c[nH]c2ccccc12)NC(=O)C(CCC(=O)O)NC(=O)C(Cc1ccc(OP(=O)(O)O)cc1)c1cccc2ccccc12 (some centres not stated) | 30 µM | –
11 | NC(=O)[C@H](Cc1c[nH]c2ccccc12)NC(=O)C(CCC(=O)O)NC(=O)C(Cc1ccc(OP(=O)(O)O)cc1)c1ccc2ccccc2c1 (some centres not stated) | 40 µM | –
12 | C[C@H](Cc1ccc(OP(=O)(O)O)cc1)C(=O)NC(CCC(=O)O)C(=O)N[C@@H](Cc1c[nH]c2ccccc12)C(N)=O (some centres not stated) | 13.4 µM | –
13 | NC(=O)[C@H](Cc1c[nH]c2ccccc12)NC(=O)C(CCC(=O)O)NC(=O)/C=C/c1ccc(OP(=O)(O)O)cc1 (some centres not stated) | 30 µM | –

More lines, main results first:

Row | IC50 [2] | Structure (SMILES) | further results
14 | 20 µM | CC[C@H](C)[C@H](NC(=O)[C@H](CCC(=O)O)NC(=O)[C@H](CCC(=O)O)NC(=O)[C@H](C)Cc1ccc(OP(=O)(O)O)cc1)C(=O)N[C@@H](CCC(=O)O)C(=O)O | –
15 | 5.5 µM | CC[C@H](C)[C@H](NC(=O)[C@H](CCC(=O)O)NC(=O)[C@H](CCC(=O)O)NC(=O)/C=C/c1ccc(OP(=O)(O)O)cc1)C(=O)N[C@@H](CCC(=O)O)C(=O)O | –
16 | 9.3 µM | CC[C@H](C)[C@H](NC(=O)[C@H](CCC(=O)O)NC(=O)[C@H](CCC(=O)O)NC(=O)C(Cc1ccc(OP(=O)(O)O)cc1)c1ccccc1)C(=O)N[C@@H](CCC(=O)O)C(=O)O (single isomer, unassigned; isomer 2) | –
17 | 1.4 µM | CC[C@H](C)[C@H](NC(=O)[C@H](CCC(=O)O)NC(=O)[C@H](CCC(=O)O)NC(=O)C(Cc1ccc(OP(=O)(O)O)cc1)c1ccccc1O)C(=O)N[C@@H](CCC(=O)O)C(=O)O (some centres not stated) | –
18 | 3.4 µM | CC[C@H](C)[C@H](NC(=O)[C@H](CCC(=O)O)NC(=O)[C@H](CCC(=O)O)NC(=O)CCc1ccc(OP(=O)(O)O)cc1)C(=O)N[C@@H](CCC(=O)O)C(=O)O | –
19 | 2.1 µM | CC[C@H](C)[C@H](NC(=O)C(CCC(=O)O)NC(=O)C(CCC(=O)O)NC(=O)C(Cc1ccc(OP(=O)(O)O)cc1)c1cccc(O)c1)C(=O)N[C@@H](CCC(=O)O)C(=O)O (single isomer, unassigned; isomer 1) | –
20 | 5 µM | CC[C@H](C)[C@H](NC(=O)[C@H](CCC(=O)O)NC(=O)[C@H](CCC(=O)O)NC(=O)/C(=C/c1ccc(OP(=O)(O)O)cc1)C(=O)O)C(=O)N[C@@H](CCC(=O)O)C(=O)O | –
21 | 4.5 µM | CC[C@H](C)[C@H](NC(=O)[C@H](CCC(=O)O)NC(=O)[C@H](CCC(=O)O)NC(=O)CCc1c(C)cc(OP(=O)(O)O)cc1C)C(=O)N[C@@H](CCC(=O)O)C(=O)O | –
22 | 1.9 µM | CC[C@H](C)[C@H](NC(=O)[C@H](CCC(=O)O)NC(=O)[C@H](CCC(=O)O)NC(=O)C(Cc1ccc(OP(=O)(O)O)cc1)c1ccccc1)C(=O)N[C@@H](CCC(=O)O)C(=O)O (stereo in doubt) [listing 2 of 2 here] | IC50 [3]: > 100 µM; IC50 [4]: > 100 µM; IC50 [7]: 7.35 µM; IC50 [6]: > 100 µM
23 | 2.8 µM | CC[C@H](C)[C@H](NC(=O)[C@H](CCC(=O)O)NC(=O)[C@H](CCC(=O)O)NC(=O)C(Cc1ccc(OP(=O)(O)O)cc1)c1ccc2ccccc2c1)C(=O)N[C@@H](CCC(=O)O)C(=O)O (stereo in doubt) | –
24 | 3.3 µM | CC[C@H](C)[C@H](NC(=O)C(CCC(=O)O)NC(=O)C(CCC(=O)O)NC(=O)C(Cc1ccc(OP(=O)(O)O)cc1)c1cccc(O)c1)C(=O)N[C@@H](CCC(=O)O)C(=O)O (stereo in doubt) | –
25 | 0.35 µM | CC[C@H](C)[C@H](NC(=O)[C@H](CCC(=O)O)NC(=O)[C@H](CCC(=O)O)NC(=O)[C@@H](CC(=O)O)Cc1ccc(OP(=O)(O)O)cc1)C(=O)N[C@@H](CCC(=O)O)C(=O)O | –

Source: ChEMBL document CHEMBL1129087, “Novel phosphotyrosine mimetics in the design of peptide ligands for pp60src SH2 domain” (Bioorg Med Chem Lett, 1996)
